The results in this text go back to patent US9415067B2, “Genetic test for liver copper accumulation in dogs and low copper pet diet” (Mars, Inc., priority 2009, dated 2016).

The test system of data set [1] is canine dermal fibroblast cells ATP7A^C/C, ATP7A^C/T, ATP7A^T/T. Kind of data set: 64Cu incorporation and efflux (washout) in canine primary dermal fibroblasts, gamma counting. It is filed as cell-based, dog. The following applies: 100 μM. How it is done:
FIGS. 7A and 7B show copper isotope measurements in canine primary fibroblast cells. Copper isotope (64Cu) measurements in ATP7A^C/C, ATP7A^C/T and ATP7A^T/T cells after (A) 24 h or 48 h incubation with 10 μM, 50 μM and 100 μM 64Cu, or (B) 24 hrs incubation, followed by extensive washing and incubation in non copper isotope media for 2 h. Gamma-counts were corrected for cell culture conditions by means of a protein and MTS assay. Data points for 24 hr incubation represent the mean+/−SEM from two independent experiments performed in duplicate and expressed as counts per minute (cpm) of total cell protein. Other data points represent mean+/−SEM from one experiment in duplicate.
The canine dermal fibroblast cells CDFIB44, CDFIB62 and CDFIB111 were isolated from euthanized female Labradors. Blood samples, taken prior to euthanizing were subject to the genetic test of the invention to ascertain increased risk to the disease. CDFIB111 was homozygous for the ATP7A SNP and CDFIB62 was heterozygote. […] was used as a control. […]
For copper treatment, cells were incubated in 10, 50, and 100 μM copper for 24 or 48 h. […] Emission was measured in individual tubes containing media, washing steps, or lysate in a Packard B5003 gamma counter (Packard BioScience Benelux, Groningen, the Netherlands) between 450 and 800 keV for 2 minutes. […] Cells were then analysed for copper as described above. Copper accumulation was normalized to the protein concentration of the cell lysate (quantified using a Bio Rad Protein Assay Kit, Bio Rad) and an MTS colorimetric assay (3-[4,5-dimethylthiazol-2-yl]-5-[3-carboxymethoxyphenyl]-2-[4-sulfophenyl]-2H-tetrazolium) (Promega) was run in parallel. This quantitative assay detects living but not dead cells. The absorbance at 490 nm (test wavelength) and at 650 nm (reference wavelength) was measured using an enzyme-linked immunosorbent assay microplate reader (Bio-Rad); wells containing culture medium but no cells served as blanks. […]

Data set [2] deals with hepatic copper accumulation. Kind of data set: Diet trial with randomized placebo-controlled zinc application: quantitative hepatic copper by neutron activation analysis of liver biopsies. The class given is in vivo, dog. How it is done: All dogs were fed the same diet. […] The pharmacist was the only person aware of group allocations until completion of the study. Hepatic copper concentrations and histopathology were assessed along with clinical examinations and blood-work before and after treatment for a mean of 8 months (range 5-13), and 16 months (range 12-25). Plasma zinc concentrations were measured at additional time points during treatment.
All dogs had completed their treatment with penicillamine prior to the start of this study. A medical history was obtained from all dogs and a physical examination was performed. […] Two biopsies were fixed in 10 percent neutral buffered formalin, and one biopsy was stored in a copper-free container for quantitative copper determination.
A quantitative assay for copper in liver tissue was performed by neutron activation analysis, according to a protocol described by Teske et al, using the facilities described by Bode (Bode, P. (1990) Journal of Trace and Microprobe Techniques 8: 139; Teske et al. (1992) Vet Rec 131: 30-32). Quantitative copper concentrations were measured in lyophilised liver biopsies and reported in mg/kg dry weight liver.
All dog owners were provided with the same specially manufactured diet. […] Metabolizable energy (measured according to Association of American Feed Control Officials protocol): 1650 kcal/kg as fed). […]

Data set [3] in a line: Pharmacokinetic study of oral zinc gluconate, plasma zinc by atomic absorption spectrometry. The note with it: mean of dog 1 and dog 2. The class given is in vivo. The method, then:
Two unrelated nine-year old, healthy Labrador Retrievers (1 female and 1 male) were used in a pharmacokinetic study. Food was withheld for a 12-hour period prior to oral administration of zinc, and during the initial 6-hour testing period. Water was freely available. […] Heparinized blood samples (4 ml) were collected from the jugular vein before dosing (time 0) and 15, 30, 45, 60, 90, 120 minutes, and 4, 8, 12 and 24 hours after application of the drug. Plasma was stored at −20° C. until analysis for zinc using atomic absorption spectrometry.
In addition the test was used to detect a difference between group-1 and group-2 before the study, at recheck-1, and at recheck-2 (significance level p<0.05).

Data set [4] concerns hepatic copper accumulation. Kind of data set: Example 7: hepatic copper before penicillamine, after penicillamine and after diet. It is filed as in vivo, dog. The following applies: all dogs fed the diet of Example 6, data not shown. The method, then: FIG. 3 illustrates the effectiveness of the diet of the invention on hepatic copper concentrations (mg/kg dry weight) in 18 Labrador Retrievers compared with the effect of penicillamine alone. The key to the x-axis is as follows: 1=pre-penicillamine, 2=post-penicillamine/pre-food, 3=post-food. […] The dotted line represents the normal level of hepatic copper for adult dogs.
During an investigation of the effect of zinc on hepatic copper concentration, hepatic copper concentration was measured in 18 pure-bred Labrador Retrievers. Half of the dogs were provided with a supplement of zinc and the other half were provided with a placebo. All of the dogs were fed the diet of Example 6. Hepatic copper 25 concentration was measured using the method of Example 6 at 3 time points: (1) before treatment with penicillamine; (2) after treatment with penicillamine but before treatment with the diet of Example 6; and (3) after the diet treatment.

[5] abbreviates: 24 h incubation, 2 h of washout.

`[64Cu]` [Cu64]: in data set [1] (setting [5]), the “isotope retained by ATP7A^C/C cells” value is on record as “approximately 45%” and the “isotope retained by ATP7A^T/T cells” value is given as approximately 90%. In addition, the “increase in incorporation of copper in ATP7A^T/T and ATP7A^C/T cells compared to ATP7A^C/C cells” value in data set [1] (after 24 h and 48 h) is recorded as “approximately two-fold”.
As for `CC(C)(S)[C@@H](N)C(=O)O` [penicillamine], the “mean hepatic copper concentration after completion of treatment with penicillamine” value in data set [2] (24 Labradors at the start of the diet trial, reference range 400 mg/kg dry weight) came out at 894 mg/kg dry weight.
For zinc gluconate, the “apparent oral clearance (CL/F)” value in data set [3] turned out to be 2.116898 mL/min/kg. For the same compound, the “difference between copper levels in dogs treated with zinc and with the placebo” value in data set [4] was “no significant difference”. Besides, in data set [2] (diet + zinc gluconate 7.5 mg/kg PO BID versus diet + placebo), the “effect of adjunctive zinc on the de-coppering effect of the diet” value is reported as “did not amplify the de-coppering effect”.
